Assay results published in US8853188B2, “Compositions and methods for cancer treatment” (Women and Infants Hospital of RI, Inc., priority 2005, dated 2014).
“Also recorded” adds a separate entry of the source.

Columns and labels:
[1] = test system: caspase-3; experiment: Caspase-3 activation with specific substrate in SK-N-SH cells; assay type: cell-based; settings: 250 nM, compared to vehicle treated control
Procedure: Caspases are integral to apoptosis in cells. Following the treatment of SK-N-SH cells with 250 nM B3CD, activation of caspase-3 was measured by using specific substrate.

[2] = test system: Human umbilical vein endothelial cells (HUVEC); experiment: Endothelial cell BrdU incorporation assay; assay type: cell-based; settings: 25-400 nM, 24 hours
Procedure: Human umbilical vein endothelial cells (HUVEC) were treated with B3CD (25, 50, 100, 200 and 400 nM) for 24 hours and proliferation was measured as before. Vehicle and CD treated controls were used in each experiment. […] Following the treatment with B3CD, the endothelial cells were rounded up and floated, showing indications of apoptosis similar to NB.

[3] = test system: VEGF induced angiogenesis; experiment: Chick chorioallantoic membrane (CAM) assay; assay type: in vivo
Procedure: Materials and methods. Proliferation was measured by MTS and BrdU incorporation assays. Apoptosis was assessed by DNA fragmentation, Cell Death Detection ELISA and caspase-3-assays. Effect of B3CD on TrkB signaling by BDNF was assessed by Western Blot analysis of AKT and ERK phosphorylation. The effect on angiogenesis was determined by chick chorioallantoic membrane (CAM) assay and aortic ring assay.
The antiproliferative effect of B3CD on endothelial cells was further investigated.
The ability of B3CD to inhibit angiogenesis/neovascularization was tested. Preliminary studies were carried out using chick chorioallantoic membrane (CAM) assay. Calcidiol or B3CD were deposited in the presence of growth factor (VEGF) and deposited on the CAM and eggs were incubated for 3 days at 37° C. (3% CO2). The control carried the growth factor alone. VEGF induces angiogenesis which results in sprouting of capillaries from the large vessels. The compounds diffuse out and any inhibitory molecule would reduce the growth of blood vessel network.

[4] = test system: Caspase-9; experiment: Caspase-9 immunoblot in NB cells; assay type: cell-based; settings: SMS-KCNR, IMR-32 and SH-SY5Y cells
Procedure: FIG. 10B. Caspase-9 immunoblot.
In depth studies were carried out to assess the activation of intrinsic and extrinsic apoptotic pathways. […] Caspase-9 was activated by B3CD in these cells (FIG. 10B), indicating an active role of intrinsic pathway of apoptosis. […] However, caspase-8 was undetectable in IMR-32 and SH-SY5Y cells.

SMILES: C=C1CC[C@H](OC(=O)CBr)C/C1=C/C=C1\CCC[C@]2(C)[C@@H]([C@H](C)CCCC(C)(C)O)CC[C@@H]12 [B3CD, bromoacetic acid 3-{2-[1-(5-hydroxy-1,5-dimethyl-hexyl)-7a-methyl-octahydro-inden-4-ylidene]-ethylidene}-4-methylene-cyclohexyl ester]
- increase of caspase-3 activity [1]: ~6 fold
- BrdU incorporation [2]: strongly inhibited BrdU incorporation
- inhibition of angiogenesis / neovascularization (in words) ([3]; VEGF present): inhibited VEGF induced angiogenesis; also recorded: inhibit
- inhibition of neovascularization ([3]; compared to untreated controls): ~60%
- density of fine capillary network ([3]; versus VEGF control eggs): markedly reduced
- caspase-9 activation (immunoblot) [4]: activated
